Test results reported in EP0629633A2, “Dinucleotide analogues, intermediates therefor and oligonucleotides derived therefrom” (CIBA-GEIGY AG, priority 1993, dated 1994).

Legend:
[1] = system: herpes simplex virus type 2(HSV-2) (strain HG52); experiment: Antiviral plaque reduction assay, HSV-2; type: cell-based; details: Human alphaherpesvirus 2; HSV-2, Vero cells, plaque numbers after 2 or 3 days
Procedure: (§1) Compound 34 is tested for antiviral activity against herpes simplex virus type 1(HSV-1) (strain 17i) and herpes simplex virus type 2(HSV-2) (strain HG52) in vitro. Aqueous solutions of the compounds are prepared at concentrations between 10mM and […]. The solutions are stored at -70°C after preparation and thawed prior to use in the antiviral assays. After thawing, the solutions are diluted to the appropriate concentration in the cell-culture medium without prior filtration.
(§2) In a procedure similar to that described by Tyms etal, J. Antimicrob. Chemother, 8,65-72 (1981), cell monolayers are infected with 20-200 plaque forming units and after virus adsorption the inoculum is replaced by maintenance medium containing different concentrations of the compound under investigation. Virus spread is prevented by the incorporation of 0.5% low gelling temperature agarose. At the end of a set period (2 or 3 days) monolayers are fixed, stained with methylene blue and plaque numbers determined.

[2] = system: herpes simplex virus type 1(HSV-1) (strain 17i); experiment: Antiviral plaque reduction assay, HSV-1; type: cell-based; details: Human alphaherpesvirus 1; HSV-1, Vero cells, plaque numbers after 2 or 3 days
Procedure: as §1, §2

Compound `Cc1cn(C2CC(O)C(CCP(=O)(c3ccccc3)C(O)C3CC(n4cc(C)c(=O)[nH]c4=O)OC3CO[Si](c3ccccc3)(c3ccccc3)C(C)(C)C)O2)c(=O)[nH]c1=O` (centres unmarked) [Compound 34] has an IC50 [1] of 3.8 µM and an IC50 [2] of 2.6 µM.
